# Measured values from US12285464B2, “Therapeutic targets involved in the progression of nonalcoholic steatohepatitis (NASH)” (The Trustees of Columbia University in the City of New York, priority 2016, dated 2025).
# “Also recorded” adds a separate entry of the source.
# Tests used:
# TAZ [1] = assay: TAZ silencing with AAV8-shTaz in FPC-fed hyperphagic Mc4r-/- mice, 16 weeks; assay type: in vivo; conditions: FPC diet 16 wks
# Protocol: (§1) To study TAZ function in NASH development, FPC mice were treated with AAV8-shTaz vs. AAV8-control RNA. […] Mouse body weight, liver:body weight ratio, fasting blood glucose, plasma insulin, and plasma cholesterol were similar in the Taz shRNA and control groups.
# (§2) Male wild-type mice C57BL/6J (#000664, 8-10 weeks/old) and MC4R-negative loxTB Mc4r mice (#006414, 6 weeks/old), referred to here as Mc4r^-/- mice, were obtained from Jackson Laboratory (Bar Harbor, ME) and were allowed to adapt to housing in the Columbia University Medical Center Institute of Comparative Medicine for 1 week prior to random assignment to experimental cohorts. The mice were then fed the following diets for the times indicated in the figure legends: (a) chow diet (Picolab rodent diet 20, #5053); (b) “fast-food” (FF). diet (TestDiet 1810060): high-fat diet with drinking water containing 42 g/L glucose and fructose (55%/45%, w/w); or (c) fructose-palmitate-cholesterol (“FPC”) diet (Teklad, TD.140154): similar to FF diet but with 1.25% added cholesterol and with palmitic acid, anhydrous milk fat, and Primex as the sources of fat and with a ˜60% decrease in vitamin E and a ˜35% decrease in choline compared with typical mouse diets. The detailed composition of these diets appear in Tables 1 and 2. For several experiments, groups of mice were placed on a methionine-choline-deficient diet (Teklad, TD. 90262) for 8 weeks, as described (Dixon et al., 2012). Adeno-associated virus (2×10^11 genome copy/mouse) was delivered by tail vein injection either 1 week prior to diet initiation or after 8 weeks of the FPC diet. Animals were housed in standard cages at 22° C. in a 12-12-h light-dark cycle. All animal experiments were performed in accordance with institutional guidelines and regulations and approved by the Institutional Animal Care and Use Committee at Columbia University.
# Formalin-fixed, paraffin-embedded liver sections were stained with hematoxylin and eosin (H&E) and evaluated for severity of NAFLD by a trained hepatopathologist blinded to the clinical diagnosis, αaccording to criteria described by Brunt et al. (Kleiner et al., 2005; Liang et al., 2014). Liver fibrosis was assessed by Picrosirius (Sirius) red (Polysciences, #24901) or by Masson's trichrome staining (Sigma, HT15), with aniline blue-positive areas quantified as a measure of collagen content in the trichrome-stained. sections. TUNEL staining was conducted using a kit from Roche (#12156792910). For immunofluorescence microscsopy, paraffin sections were rehydrated, subjected to antigen retrieval by placing in a pressure cooker for 10 mins in Target Retrieval Solution (Dako, S1699), and then blocked with serum. Sections were labeled with primary antibodies overnight, using a 1:150 dilution except for α-SMA and 4-HNE (1:200) and TAZ (1:400), followed by incubation with a fluorophore-conjugated secondary antibody for 1 h. The stained sections were mounted with DAPI-containing mounting medium (Life Technologies, P36935) and then viewed on an Olympus IX 70 fluorescence microscope. For filipin (Sigma, F9765) staining, frozen sections were fixed in 4% paraformaldehyde for 1 h at room temperature, then rinsed using glycine/PBS and stained 0.25 mg/ml filipin 2 h at room temperature. Fluorescence microscopic images were analyzed using ImageJ software. For immunohistochemistry, the deparaffinization, rehydration, and antigen retrieval processes were the same as with immunofluorescence staining. The slides were treated with 3% hydrogen peroxide for 10 min and then blocked with Serum-Free Protein Block (Dako, X0909) for 30 min. Sections were incubated with OPN, F4/80, or α-SMA primary antibody (1:100) overnight and then developed using DAB substrate kit (Cell Signaling, #8059) for OPN and F4/80,FITC-labeled anti-HRP secondary antibody for α-SMA.
# Hydroxyproline liver content was measured as previously described (Bataller et al., 2003; Seki et al., 2009). […]
# TAZ [2] = assay: TAZ silencing with AAV8-shTaz in FPC-fed C57BL/6J mice, FPC diet for 16 weeks; assay type: in vivo; conditions: FPC diet 16 weeks
# Protocol: as §1
# The following antibodies were used for immunoblots: GAPDH (#3683), β-actin (#5125), CHOP (#5554), TAZ (#8418), p-eIF2α (#3398), eIF2α (#5324), Lamin A/C (#4777) from Cell Signaling; p-TAZ (sc-17610) and Col1a1 (sc-8784) from Santa Cruz; Ihh (ab39634) from Abcam; and Timp1 (AF980) from R & D. The following antibodies were using for immunostaining of liver: α-SMA (ACTA2) (C6198, F3777) and TAZ (HPA007415) from Sigma; F4/80 (MCA497GA) from AbD Serotec; Ly6g (#127601) from Biolegend; Ly6b (MCA771G) from Bio-Rad; OPN (AF808) from R & D; 4-hydroxynonenal (4-HNE) (AB5605) from Millipore; and HNF4α (sc-6556) from. Santa Cruz. The following plasma assay kits were used in this study: insulin ELISA (#90080) from. Crystal Chem; MCP1 ELISA (#88-7391-22) from eBiosciences; cholesterol (#439-17501) and triglyceride (#465-09791, #461-09891) from Wako; and ALT (#006A-CR) and AST (#004A-CR) from BQ Kits, Inc. AAV8-shRNA targeting murine Taz was made by annealing complementary oligonucleotides (5′-CACCAcagcegaatctcgcaatgaatCTCGAGATTCATTGCGAG ATTCGGCTG-3′) (SEQ ID NO:1), which were then ligated into the pAAV-RSV-GFP-H1 vector, as described previously (Lisowski et al., 2014). The resultant constructs were amplified by the Salk Institute Gene Transfer, Targeting, and Therapeutics Core.
# as §2
# Fasting blood glucose was measured using a glucose meter (One Touch Ultra, Life-scan) in mice that were fasted for 4-5 h, with free access to water. Complete blood counts were obtained with the FORCYTE Veterinary Hematology Analyzer (Oxford Science, Inc.). Total plasma triglyceride and cholesterol were assayed using a commercially available kit from Wako. For insulin, MCP1, AST, ALT, TC, TG are measured following kit instruction by using plasma.
# Formalin-fixed, paraffin-embedded liver sections were stained with hematoxylin and eosin (H&E) and evaluated for severity of NAFLD by a trained hepatopathologist blinded to the clinical diagnosis, αaccording to criteria described by Brunt et al. (Kleiner et al., 2005; Liang et al., 2014). […]
# TAZ [3] = assay: TAZ silencing after development of steatosis: AAV8-shTaz at week 8 of 16 weeks of FPC diet; assay type: in vivo, mice; conditions: shTaz at week 8, read at 16 weeks of FPC diet
# Description: To investigate the role of TAZ specifically in steatosis-to-NASH conversion, mice were first fed the FPC diet for 8 weeks and then injected with AA8-shTaz or control virus, followed by an additional 8 weeks on the diet. Note that 8 weeks of FPC diet caused steatosis but no appreciable inflammation or fibrosis (FIG. 6A).
# as §2
# TAZ [4] = assay: shTaz in the MCD (methionine/choline-deficient) diet model; assay type: in vivo, mice
# Description: Thus, in separate models of NASH, hepatic TAZ silencing improved key liver parameters related to inflammation, fibrosis, and cell death without affecting metabolic parameters or steatosis.
# as §2
# PCSK9 = conditions: modified stable siRNA, clinical trials; cited from earlier work
# [5] = system: primary murine hepatic stellate cells (HSCs); assay: Conditioned medium transfer from silenced AML12 hepatocytes to primary hepatic stellate cells; assay type: cell-based, mouse; conditions: CM from TAZ-silenced vs control hepatocytes, 72 h
# Description: To explore the possibility that TAZ-induced Ihh is secreted by hepatocytes and activates HSCs, an in vitro model using AML12 cells, a non-cancerous mouse hepatocyte cell line was utilized (Dumenco et al., 1995), along with primary murine HSCs. Consistent with the in vivo data, siTaz treatment of AML12 hepatocytes lowered cellular Ihh mRNA in the cells and Ihh protein in both the cells and media (FIGS. 8A-C). In the next experiments, conditioned medium (CM) from control or Taz-silenced AML12 cells was utilized, as well as medium not exposed to cells (non-CM), to primary murine hepatic stellate cells (HSCs). […] Finally, to make a more direct link between TAZ-induced Ihh in hepatocytes and activation of HSCs, Ihh was restored in siTaz-treated hepatocytes by Ihh transfection and then analyzed to determine whether this lessened the suppressive effect of CM from these cells on the expression of the fibrosis-related genes in HSCs. […]
# (§3) AML12 mouse hepatocytes were purchased from ATCC (CRL-2254) and cultured in DMEM/F12 medium (Lifetechnologies, #11320) with 10% FBS (Gibco, #16140-071). […] For quantification of Ihh, hepatocyte conditioned medium was concentrated 10-fold by centrifugal filters (Millipore, Ultracel) and analyzed by an ELISA kit (LifeSpan Biosciences, F7953).
# Taz [6] = assay: siTaz treatment of AML12 hepatocytes (Ihh mRNA, immunoblot, ELISA); assay type: cell-based, mouse
# Description: To explore the possibility that TAZ-induced Ihh is secreted by hepatocytes and activates HSCs, an in vitro model using AML12 cells, a non-cancerous mouse hepatocyte cell line was utilized (Dumenco et al., 1995), along with primary murine HSCs. Consistent with the in vivo data, siTaz treatment of AML12 hepatocytes lowered cellular Ihh mRNA in the cells and Ihh protein in both the cells and media (FIGS. 8A-C). In the next experiments, conditioned medium (CM) from control or Taz-silenced AML12 cells was utilized, as well as medium not exposed to cells (non-CM), to primary murine hepatic stellate cells (HSCs). […] Most importantly, CM from TAZ-silenced hepatocytes lowered the levels these mRNAs and protein compared to CM from shCon-treated hepatocytes (FIG. 8D). […] Finally, to make a more direct link between TAZ-induced Ihh in hepatocytes and activation of HSCs, Ihh was restored in siTaz-treated hepatocytes by Ihh transfection and then analyzed to determine whether this lessened the suppressive effect of CM from these cells on the expression of the fibrosis-related genes in HSCs. Transfection of TAZ-silenced hepatocytes with Ihh led to a level of Ihh in the CM that was similar to that in the CM of control hepatocytes (FIG. 8F—compare 1st and 4th bars). As before, the CM of TAZ-silenced hepatocytes suppressed Opn, Timp1 and Col1a1 mRNA in HSCs (FIG. 8G—compare 2nd and 4th bars), and the present results illustrate that restoration of Ihh in these TAZ-silenced cells rescued CM-induced HSC gene expression (FIG. 8G—compare 4th and 5th bars).
# as §3, with “#16140-071). Hepatic stellate cells (HSCs) were isolated from 5-6 mo/o BALB/C mice as described previously (Mederacke et al., 2015).” for “#16140-071).”, “F7953). […]” for “F7953).”
substance,measurement,setting,value
"5′-CACCAcagcegaatctcgcaatgaatCTCGAGATTCATTGCGAG ATTCGGCTG-3′ (DNA CACCACAGCCGAATCTCGCAATGAATCTCGAGATTCATTGCGAGATTCGGCTG; expressed or natural sequence) [AAV8-shTaz, AAV8-shRNA targeting murine Taz; annealed oligonucleotides ligated into the pAAV-RSV-GFP-H1 vector]",hydroxyproline content of liver,TAZ [1],lower; also recorded: reduced
same,liver inflammation (hepatic inflammatory cells),TAZ [1],decreased; also recorded: reduced
same,plasma ALT,TAZ [1],reduced
same,staining for Sirius red,TAZ [1]; liver,decreased staining
same,staining for aniline blue,TAZ [1]; liver,decreased staining
same,staining for α-SMA,TAZ [1]; liver,decreased staining
same,4-HNE+ liver cells,TAZ [2],decrease
same,TUNEL+ liver cells,TAZ [2],decrease
same,inflammatory cell infiltration in liver sections,TAZ [2],marked reductions
same,plasma ALT,TAZ [2],decreased
same,steatosis,TAZ [2],not affected
same,hepatic Ihh protein,TAZ [2]; immunoblot,suppressed
same,F4/80+ macrophages,TAZ [2]; liver,decreases
same,"expression of mRNAs related to fibrosis (Acta2, Timp1, Des, Col1a1, Col1a2, Col3a1, Vim)",TAZ [2]; liver,robust reduction
same,"expression of mRNAs related to hepatic inflammation (Tnfa, Mcp1, F4/80 (Adgre1))",TAZ [2]; liver,robust reduction
same,α-SMA+ cells,TAZ [2]; liver,decreases
same,silencing of TAZ in liver (immunoblot),TAZ [2]; vs AAV8-control RNA,robust silencing
same,Mouse body weight,TAZ [2]; vs control group,similar
same,fasting blood glucose,TAZ [2]; vs control group,similar
same,liver:body weight ratio,TAZ [2]; vs control group,similar
same,plasma cholesterol,TAZ [2]; vs control group,similar
same,plasma insulin,TAZ [2]; vs control group,similar
same,fibrosis endpoints in liver sections,"TAZ [2]; aniline blue, Sirius red",marked reductions
same,F4/80+ macrophages,TAZ [3],marked reductions
same,fibrosis endpoints (aniline blue- and Sirius red-positive areas),TAZ [3],marked reductions; also recorded: reduced
same,inflammatory cells,TAZ [3],marked reductions; also recorded: reduced
same,"inflammatory- and fibrosis-related genes (Tnfa, Mcp1, Tgfb1, Acta2 mRNA)",TAZ [3],marked reductions; also recorded: reduced
same,plasma ALT,TAZ [3],marked reductions; also recorded: reduced
same,α-SMA+ cells,TAZ [3],marked reductions
same,hepatic fibrosis,TAZ [4],decreased
same,hepatic inflammation,TAZ [4],decreased
same,macrophages in the liver,TAZ [4],reduced
same,steatosis,TAZ [4],without impacting
same,α-SMA+ cells in the liver,TAZ [4],reduced
same,inflammatory and fibrotic gene expression,TAZ [4]; liver,reduced
Inclisiran,toxicity profile,PCSK9,very low toxicity profiles
"siTaz: siRNA against mouse Taz purchased from IDT; target sequence ACAUGGACGAGAUGGAUACAGGUGA (sense ACAUGGACGAGAUGGAUACAGGUGA; purchased from IDT, chemistry not given here; the letters are possibly those of the target site)","Opn, Timp1 and Col1a1 mRNAs and protein in HSCs",[5],lowered
same,cellular Ihh mRNA,Taz [6],lowered
same,Ihh protein in the media,Taz [6]; ELISA,lowered
same,Ihh protein in the cells,Taz [6]; immunoblot,lowered
